# Assay results reported in ChEMBL document CHEMBL1139731, “Identification of non-furan containing A2A antagonists using database mining and molecular similarity approaches” (Bioorg Med Chem Lett, 2006).
# Experiments:
# Adenosine receptor A1 = target: T1, Adenosine receptor A1 (Homo sapiens, UniProt P30542); assay: Displacement of [3H]DPCPX from recombinant adenosine A1 receptor
# T1 sequence (P30542 whole entry): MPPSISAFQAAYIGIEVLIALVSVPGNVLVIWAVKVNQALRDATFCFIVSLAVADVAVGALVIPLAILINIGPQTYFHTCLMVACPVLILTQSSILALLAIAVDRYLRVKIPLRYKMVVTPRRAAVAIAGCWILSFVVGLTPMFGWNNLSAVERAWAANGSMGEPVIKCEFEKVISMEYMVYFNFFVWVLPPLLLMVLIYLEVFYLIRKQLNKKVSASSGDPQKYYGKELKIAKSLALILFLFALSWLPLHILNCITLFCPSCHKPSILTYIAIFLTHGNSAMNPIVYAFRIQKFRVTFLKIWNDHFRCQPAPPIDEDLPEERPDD
# Adenosine receptor A2a = Adenosine receptor A2a (Homo sapiens, UniProt P29274); assay: Displacement of [3H]CGS21680 from human recombinant adenosine A2A receptor
# Sequence of Adenosine receptor A2a (P29274 whole entry): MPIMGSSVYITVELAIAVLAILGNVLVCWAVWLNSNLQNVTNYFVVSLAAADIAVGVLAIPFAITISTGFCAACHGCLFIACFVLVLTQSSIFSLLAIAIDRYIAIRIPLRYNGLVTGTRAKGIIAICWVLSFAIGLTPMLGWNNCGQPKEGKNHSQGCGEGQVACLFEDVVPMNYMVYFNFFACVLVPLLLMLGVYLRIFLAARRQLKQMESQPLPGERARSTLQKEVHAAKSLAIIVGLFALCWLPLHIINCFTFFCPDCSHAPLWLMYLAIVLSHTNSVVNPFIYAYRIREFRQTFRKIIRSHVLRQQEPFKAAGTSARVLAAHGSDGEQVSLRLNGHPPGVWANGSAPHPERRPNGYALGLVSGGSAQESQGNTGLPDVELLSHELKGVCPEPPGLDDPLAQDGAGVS
Compound,Ki (Adenosine receptor A1),Ki (Adenosine receptor A2a)
Fc1ccc(CNc2nc(-c3ccccc3)cc(C(F)(F)F)n2)cc1,> 10000 nM,287 nM (antagonist)
COc1ccc(-c2cccc(-c3nc(N)nc(SC)n3)c2)cn1,840 nM (antagonist),23 nM (antagonist)
CCSc1nc(N)nc(-c2ccccc2)n1,67 nM (antagonist),5 nM (antagonist)
COc1cc(-c2cc(-c3ccc(O)cc3)nc(N)c2C#N)ccc1O,94 nM (antagonist),151 nM (antagonist)
CCOc1cc(-c2cc(-c3ccc(O)cc3)nc(N)c2C#N)ccc1O,42 nM (antagonist),267 nM (antagonist)
Fc1ccc(CNc2nc(-c3cccs3)cc(C(F)(F)F)n2)cc1,> 10000 nM,287 nM (antagonist)
Fc1ccc(CNc2nc(-c3ccc(Cl)cc3)cc(C(F)(F)F)n2)cc1,> 10000 nM,454 nM (antagonist)
CSc1nc(N)nc(-c2cccc(-c3ccc4[nH]ccc4c3)c2)n1,218 nM (antagonist),31 nM (antagonist)
N#Cc1c(-c2ccc(F)cc2)cc(C2CC2)nc1N,865 nM (antagonist),106 nM (antagonist)
COc1cccc(-c2cc(C(F)(F)F)nc(NCc3ccc(F)cc3)n2)c1,> 10000 nM,290 nM (antagonist)
N#Cc1c(N)nc2c(c1-c1ccc(F)cc1)CCC2,,232 nM (antagonist)

# Further lines, results first:
Ki (Adenosine receptor A1),Ki (Adenosine receptor A2a),Compound
192 nM (antagonist),201 nM (antagonist),N#Cc1c(-c2ccc(Cl)cc2)cc(-c2ccccc2)nc1N
> 10000 nM,210 nM (antagonist),N#Cc1c(-c2ccc(Cl)c(Cl)c2)cc(-c2cccnc2)nc1N
239 nM (antagonist),89 nM (antagonist),N#Cc1c(-c2ccccc2Cl)cc(-c2ccccc2)nc1N
274 nM (antagonist),118 nM (antagonist),Cc1ccc(-c2cc(-c3ccccc3)nc(N)c2C#N)cc1
59 nM (antagonist),87 nM (antagonist),N#Cc1c(-c2ccc(F)cc2)cc(-c2ccccc2)nc1N
1740 nM (antagonist),403 nM (antagonist),N#Cc1c(-c2ccc(Cl)cc2)cc(-c2ccccc2Cl)nc1N
